# Several values for one entry are separate records, joined by “and”; a condition that tells them apart may be missing. Equal entries are not always repeated.
# Tested on: adult subjects with Major Depressive Disorder
# Assay: Phase 3 open-label 1-year study: need for re-treatment (number of and time to re-treatments)
# Assay type: in vivo, human
# Text: Secondary Objective: To assess the need for re-treatment with Compound (1) following initial treatment in adults with MDD currently experiencing an MDE over a 1-year period, and to assess the response of initial treatment and re-treatment(s) with Compound (1) following an initial 2-week treatment period in adults with MDD currently experiencing an MDE over a 1-year period.
# Secondary Endpoints: The need for re-treatment with Compound (1) as assessed by: time to first re-treatment (Kaplan-Meier curves), number of subjects achieving the requirements for re-treatment, number of re-treatment cycles for each subject, the response of initial treatment and/or re-treatment as assessed by: change from baseline in the 17-item Hamilton Rating Scale for Depression (HAM-D) total score at the end of each 14-day treatment (initial and/or re-treatment) period, HAM-D response at the end of each 14-day treatment (initial and/or re-treatment) period, defined as a ≥50% reduction in HAM-D score from baseline, HAM-D remission at the end of each 14-day treatment (initial and/or re-treatment) period, defined as HAM-D total score≤7, Clinical Global Impression-Improvement (CGI-I) response, defined as “much improved” or “very much improved”, at the end of each 14-day treatment (initial and/or re-treatment) period, change from baseline in Clinical Global Impression-Severity (CGI-S) score at the end of each 14-day treatment (initial and/or re-treatment) period.
# Subjects who continued in the Observation Period were monitored remotely via PHQ-9 assessment every two weeks. If PHQ-9 score was >=10 at any assessment, PHQ-9 assessment was switch to every week until the score came down below 10 or the subject was dosed with Compound (1) in a subsequent cycle, whichever was earlier. A subject was to come back to the site for HAM-D assessment within a week of PHQ-9 score >=10; if the HAM-D total score >=20 and at least 56 days had elapsed since the last dose of Compound (1), another dosing cycle of Compound (1) were to start. If any of these criteria were not met, the subject couldn't be treated with Compound (1) at that time. Without the trigger of PHQ-9>=10 the subject was to have a clinic visit every 8 weeks. A subject could have at most 5 cycles of treatment within a year. FIG. 2 is a depiction of the eligibility criteria of the study.
# The cohorts pertaining to the different doses that the subjects received were defined as following: • 50 mg cohort: This cohort includes subjects who have initiated treatment with 50 mg and received re-treatment with 50 mg only. • 30 mg cohort: This cohort includes subjects who have initiated treatment with 30 mg regardless of the dose they have received in re-treatments. • Low dose cohort: This cohort includes subjects who have initiated treatment with 30 mg and received re-treatment with 30 mg only. • Dose switch cohort: This cohort includes subjects who have received initial treatment with 30 mg and at least one subsequent re-treatment with 50 mg. • Study Period X: starts on the date of the first dose of Compound (1) in cycle X and goes up to one day prior to the first dose of the next cycle. In some embodiments, X is any number from 1 to 5. • Treatment Period X: starts on the date of the first dose of Compound (1) in cycle X and goes up to one day after the last dose in cycle X. In some embodiments, X is any number from 1 to 5. • Treatment Cycle X: starts on the date of the first dose of Compound (1) in cycle X and goes up to 14 days after the last dose in cycle X. The treatment cycles may be denoted as C1-C5. • Observation period X: starts the day after Treatment Cycle X ends and goes up to one day prior to the start of next treatment cycle. In some embodiments, X is any number from 1 to 5.
# Analysis Sets: The safety set was defined as all subjects who were administered study drug. The period-specific safety set includes subjects in the safety set who were administered study drug in the corresponding treatment cycle. […]
# [1] = 50 mg Cohort (N = 146), Examples 2-3 cut-off
# [2] = 50 mg Cohort FAS (146), one-year follow-up (Example 4)
# [3] = 50 mg Cohort, Examples 2-3 cut-off
# [4] = Cycle 3, 50 mg Cohort (FAS), 1 subject
compound,measurement,setting,value
"C[C@@]1(O)CC[C@H]2[C@H](CC[C@@H]3[C@@H]2CC[C@]2(C)[C@@H](C(=O)Cn4cc(C#N)cn4)CC[C@@H]32)C1 [Compound (1), 1-(2-((3R,5R,8R,9R,10S,13S,14S,17S)-3-hydroxy-3,13-dimethylhexadecahydro-1H-cyclopenta[a]phenanthren-17-yl)-2-oxoethyl)-1H-pyrazole-4-carbonitrile]",Average (range) number of re-treatments per subject over 1-year follow-up,30 mg Cohort,1.2 (0-4) and 1.2
same,Average total number of treatments per subject,30 mg Cohort,2.2
same,"Dosed in at least 1 re-treatment cycle, % of eligible",30 mg Cohort (472 eligible),279 (59.1%)
same,"Qualified to be retreated in at least 1 more cycle (HAM-D total score >= 20), % of eligible",30 mg Cohort (472 eligible),305 (64.6%)
same,"FAS Subjects Dosed in C2, n (%) of FAS",30 mg Cohort Overall,279 (57.1%)
same,"FAS Subjects dosed in C3, n (%) of FAS",30 mg Cohort Overall,154 (31.5%)
same,"FAS Subjects dosed in C4, n (%) of FAS",30 mg Cohort Overall,96 (19.6%)
same,"FAS Subjects dosed in C5, n (%) of FAS",30 mg Cohort Overall,43 (8.8%)
same,"Subjects with No re-treatment (Cycle 1), n (%) of FAS",30 mg cohort (N = 489),210 (42.9%)
same,"Subjects with Only 1 re-treatment (Cycle 2), n (%) of FAS",30 mg cohort (N = 489),125 (25.6%)
same,"Subjects with Only 2 re-treatment (Cycle 3), n (%) of FAS",30 mg cohort (N = 489),58 (11.9%)
same,"Subjects with Only 3 re-treatment (Cycle 4), n (%) of FAS",30 mg cohort (N = 489),53 (10.8%)
same,"Subjects with Only 4 re-treatment (Cycle 5), n (%) of FAS",30 mg cohort (N = 489),43 (8.8%) and 43 8.8%)
same,"Dosed in at least 1 re-treatment cycle, % of eligible",50 mg Cohort (122 eligible),26 (21.3%)
same,"Qualified to be retreated in at least 1 more cycle (HAM-D total score >= 20), % of eligible",50 mg Cohort (122 eligible),36 (29.5%)
same,"Subjects with No re-treatment (Cycle 1), n (%) of FAS",[1],120 (82.2%)
same,"Subjects with Only 1 re-treatment (Cycle 2), n (%) of FAS",[1],25 (17.1%)
same,"Subjects with Only 2 re-treatment (Cycle 3), n (%) of FAS",[1],1 (0.7%)
same,Subjects who received 1 treatment course in total,[2],54.8%
same,Subjects who received 2 treatment courses in total,[2],24.7%
same,Subjects who received 3 treatment courses in total,[2],10.3%
same,Subjects who received 4 treatment courses in total,[2],6.8%
same,Subjects who received 5 treatment courses in total,[2],3.4%
same,Subjects who received at most one additional treatment cycle,[2],79.5%
same,"FAS Subjects Dosed in C2, n (%) of FAS",[3],26 (17.8%)
same,"FAS Subjects dosed in C3, n (%) of FAS",[3],1 (0.7%)
same,"Proportion with zero or at most 1 additional treatment cycle, by use of antidepressant therapy at baseline","50 mg Cohort, one-year follow-up (Example 4)",similar
same,n/N: FAS subjects eligible and dosed in Cycle X / eligible for dosing in Cycle X,"Cycle 2, 50 mg Cohort",26/122
same,"Time to re-treatment since last dose in previous cycle, Mean (SD)","Cycle 2, 50 mg Cohort (FAS)",70.5 (18.52) Days
same,"Time to re-treatment since last dose in previous cycle, Median","Cycle 2, 50 mg Cohort (FAS)",62.5 days
same,"Time to re-treatment since last dose in previous cycle, Min - Max","Cycle 2, 50 mg Cohort (FAS)",58 to 122 days
same,n/N: FAS subjects eligible and dosed in Cycle X / eligible for dosing in Cycle X,"Cycle 2, Dose Switch",80/80
same,"Time to re-treatment since last dose in previous cycle, Mean (SD)","Cycle 2, Dose Switch (FAS)",116.5 (70.26) Days
same,"Time to re-treatment since last dose in previous cycle, Median","Cycle 2, Dose Switch (FAS)",91 days
same,"Time to re-treatment since last dose in previous cycle, Min - Max","Cycle 2, Dose Switch (FAS)",58 to 318 days
same,n/N: FAS subjects eligible and dosed in Cycle X / eligible for dosing in Cycle X,"Cycle 2, Low Dose",199/392
same,"Time to re-treatment since last dose in previous cycle, Mean (SD)","Cycle 2, Low Dose (FAS)",99.5 (52.15) Days
same,"Time to re-treatment since last dose in previous cycle, Median","Cycle 2, Low Dose (FAS)",78 days
same,"Time to re-treatment since last dose in previous cycle, Min - Max","Cycle 2, Low Dose (FAS)",58 to 297 days
same,n/N: FAS subjects eligible and dosed in Cycle X / eligible for dosing in Cycle X,"Cycle 3, 50 mg Cohort",1/4
same,"Time to re-treatment since last dose in previous cycle, Mean (SD)",[4],"58 (NA) Days and 58.0 (NA), 58.0, Days"
same,"Time to re-treatment since last dose in previous cycle, Median",[4],"58 Days and 58.0 (NA), 58.0, Days"
same,"Time to re-treatment since last dose in previous cycle, Min - Max",[4],58-58 Days
same,n/N: FAS subjects eligible and dosed in Cycle X / eligible for dosing in Cycle X,"Cycle 3, Dose Switch",71/76
same,"Time to re-treatment since last dose in previous cycle, Mean (SD)","Cycle 3, Dose Switch (FAS)",92.5 (34.44) Days
same,"Time to re-treatment since last dose in previous cycle, Median","Cycle 3, Dose Switch (FAS)",79 days
same,"Time to re-treatment since last dose in previous cycle, Min - Max","Cycle 3, Dose Switch (FAS)",58 to 214 days
same,n/N: FAS subjects eligible and dosed in Cycle X / eligible for dosing in Cycle X,"Cycle 3, Low Dose",83/166
same,"Time to re-treatment since last dose in previous cycle, Mean (SD)","Cycle 3, Low Dose (FAS)",87.2 (34.97) Days
same,"Time to re-treatment since last dose in previous cycle, Median","Cycle 3, Low Dose (FAS)",72 days
same,"Time to re-treatment since last dose in previous cycle, Min - Max","Cycle 3, Low Dose (FAS)",52 to 217 days
same,n/N: FAS subjects eligible and dosed in Cycle X / eligible for dosing in Cycle X,"Cycle 4, Dose Switch",53/63
same,"Time to re-treatment since last dose in previous cycle, Mean (SD)","Cycle 4, Dose Switch (FAS)",69.9 (13.40) Days
same,"Time to re-treatment since last dose in previous cycle, Median","Cycle 4, Dose Switch (FAS)",66 days
same,"Time to re-treatment since last dose in previous cycle, Min - Max","Cycle 4, Dose Switch (FAS)",57 to 120 days
same,n/N: FAS subjects eligible and dosed in Cycle X / eligible for dosing in Cycle X,"Cycle 4, Low Dose",43/74
same,"Time to re-treatment since last dose in previous cycle, Mean (SD)","Cycle 4, Low Dose (FAS)",72.1 (17.67) Days
same,"Time to re-treatment since last dose in previous cycle, Median","Cycle 4, Low Dose (FAS)",65 days
same,"Time to re-treatment since last dose in previous cycle, Min - Max","Cycle 4, Low Dose (FAS)",57 to 113 days
same,n/N: FAS subjects eligible and dosed in Cycle X / eligible for dosing in Cycle X,"Cycle 5, Dose Switch",23/45
same,"Time to re-treatment since last dose in previous cycle, Mean (SD)","Cycle 5, Dose Switch (FAS)",61.4 (6.24) Days
